Measurements reported in PubChem BioAssay (NCI).
“And” between values parts separate entries of the source, which are not always exact repeats. Equal values may be shown once.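 Growth conditions: 96-well plates. Treatment: test compound, 48 hours, 5 concentrations. Analysis: linear interpolation between bracketing concentrations; unreached endpoints set to highest concentration. Here, GI50 denotes the concentration required for 50% inhibition of growth. Definition used: TGI = concentration required for complete inhibition of growth.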

Legend:
Test in all cases: NCI tumour cell line growth inhibition, 48 h
DLD-1 colon = test system: DLD-1 colon
DMS 114 small cell lung = test system: DMS 114 small cell lung
DMS 273 small cell lung = test system: DMS 273 small cell lung
HOP-18 NSCLC = test system: HOP-18 NSCLC
KM20L2 colon = test system: KM20L2 colon
RXF-631 renal = test system: RXF-631 renal
SNB-78 CNS = test system: SNB-78 CNS
XF 498 CNS = test system: XF 498 CNS
MDA-N = test system: MDA-N
P388 leukemia = test system: P388 leukemia

SMILES	TGI (DLD-1 colon)	TGI (DMS 114 small cell lung)	TGI (DMS 273 small cell lung)	TGI (HOP-18 NSCLC)	TGI (KM20L2 colon)	TGI (SNB-78 CNS)	TGI (XF 498 CNS)	TGI (MDA-N)	further results
Cc1cc2c(=O)cc(-c3ccc(F)cc3)oc2c(C(=O)O)c1C	> 100 µM	> 100 µM	> 100 µM	> 100 µM	> 100 µM	> 100 µM	> 100 µM		TGI (RXF-631 renal): > 100 µM
O=S(=O)(NCCO)c1cc[c]([Sb](=[O])([OH])[OH])cc1								> 100 µM	GI50 (MDA-N): > 100 µM
Cc1cc(C)c(C(=O)/C=C/c2ccccc2)c(C)c1	68.9 µM	88.3 µM		> 100 µM	96.9 µM		26.5 µM		
Cc1cc2c(=O)[nH]c(N)nc2nc1C								> 100 µM	
COc1cc2c(cc1OC)[C@@H]([C@H](O)c1ccccc1)NCC2	> 100 µM	> 100 µM	> 100 µM	> 100 µM	> 100 µM	> 100 µM	> 100 µM		TGI (RXF-631 renal): > 100 µM
CC(C)(C)N=CN(C=C(c1ccccc1)c1ccccc1)C1CCCCC1	> 100 µM	55.3 µM	> 100 µM	> 100 µM	46.7 µM	> 100 µM	56.8 µM		
O=C(CC1C(=O)Nc2ccccc2S1(=O)=O)Nc1cccc(Cl)c1 (stereo unspecified)	32.7 µM	30.6 µM	29.4 µM		42.3 µM	> 100 µM	41.5 µM		TGI (RXF-631 renal): 45.3 µM
COc1ccc2c(c1)CCN1C3=C(CCC3)C(=O)C[C@@H]21		> 100 µM	> 100 µM	> 100 µM	> 100 µM	> 100 µM	> 100 µM		
CCCCCCCCCCCCCCNCC(OCC)OCC	28.3 µM	25.7 µM		30.3 µM	24.9 µM	33.5 µM	27.4 µM		
CCN(CC)CCCNc1[nH]ncc2c(C)c3nc4ccccc4c3cc12								2.39 µM and 3.99 µM	GI50 (MDA-N): 1.19 µM
C[C@@](O)(/C=C/[C@H]1CC=CC(=O)O1)[C@@H](C[C@@H](O)\C=C/C=C\C=C\CO)OP(=O)(O)O	95.9 µM	82.6 µM	167 µM	28.5 µM and 127 µM	6.55 µM and 3.17 µM	60.8 µM and > 58.8 µM	101 µM and 113 µM	8.08 µM	GI50 (HOP-18 NSCLC): 15.9 µM and 42.2 µM; GI50 (KM20L2 colon): 1.32 µM; GI50 (P388 leukemia): 1.41 µM and 0.567 µM; GI50 (SNB-78 CNS): 11.3 µM
Clc1ccc(C2=NOC3C4CCC(C4)C23)cc1 (stereo unspecified)	> 100 µM		> 100 µM	> 100 µM		> 100 µM			
Clc1cccc2c1OCC1C(c3ccccc3)=NN(c3ccccc3)C21 (stereo unspecified)	> 100 µM	> 100 µM	> 100 µM	> 100 µM	> 100 µM	> 100 µM	> 100 µM		TGI (RXF-631 renal): > 100 µM
Brc1ccc(C2SCc3nc4ccccc4n32)cc1 (stereo unspecified)	22.3 µM			78.5 µM		22.5 µM	24.5 µM		
Nc1nc(-c2cc(-c3cccc4ccccc34)nc(N)n2)cc(-c2cccc3ccccc23)n1								> 100 µM	
C[n+]1c(/C=C/c2ccc(/C=N/NC(=O)c3ccc(C(=O)N/N=C/c4ccc(/C=C/c5cn6ccccc6[n+]5C)cc4)cc3)cc2)cn2ccccc21								> 100 µM	
CC/C(CC(=O)CCC(=O)Nc1ccc(C)c(C)c1)=N\NC(=O)C(N)=O	> 100 µM	> 100 µM	> 100 µM	> 100 µM	> 100 µM	> 100 µM	> 100 µM		
Cc1ccc(C)c2c(N=Nc3ccccc3[N+](=O)[O-])c(O)[nH]c12								> 100 µM	
C/C=C1\CCC2c3[nH]c4ccccc4c3CCN2C1 (stereo unspecified)	> 100 µM	> 100 µM	> 100 µM		> 100 µM	> 100 µM	> 100 µM		
O=C1N[C@H]2[C@H](O)[C@H](O)[C@@H](O)[C@H](O)[C@@H]2c2cc3c(c(O)c21)OCO3	0.422 µM		0.466 µM	0.653 µM	3.06 µM			0.185 µM and 0.128 µM	GI50 (DLD-1 colon): 0.282 µM and 1.94 µM; GI50 (DMS 114 small cell lung): 0.241 µM and 0.604 µM; GI50 (DMS 273 small cell lung): 3.09 µM; GI50 (HOP-18 NSCLC): 0.377 µM and 1.99 µM; GI50 (KM20L2 colon): 0.35 µM and 1.76 µM; GI50 (MDA-N): 0.025 µM; TGI (P388 leukemia): 0.164 µM; GI50 (RXF-631 renal): 0.288 µM; TGI (RXF-631 renal): 4.33 µM; GI50 (SNB-78 CNS): 0.248 µM and 2.04 µM; GI50 (XF 498 CNS): 0.25 µM and 1.24 µM
CCCC#CCOC(=O)c1cc([N+](=O)[O-])cc([N+](=O)[O-])c1								> 100 µM	

SMILES	TGI (DLD-1 colon)	TGI (DMS 114 small cell lung)	TGI (DMS 273 small cell lung)	TGI (HOP-18 NSCLC)	TGI (KM20L2 colon)	TGI (SNB-78 CNS)	TGI (XF 498 CNS)	TGI (MDA-N)	further results
CC(=O)NC1=C(Sc2ccc(Cl)cc2)C(=O)c2ccccc2C1=O								3.17 µM	
COC[C@@H](N=CN1CCc2cc(OC)c(OC)cc2C1)C(C)(C)C	> 100 µM	> 100 µM		> 100 µM	> 100 µM		> 100 µM		TGI (RXF-631 renal): > 100 µM
COc1cc2c(cc1O)C(c1cc(O)c(O)c(OC)c1)C(O)(C(=O)O)C(CO)C2O (stereo unspecified)								30.9 µM	
O=C(Sc1sc(=S)sc1SC(=O)c1ccccc1)c1ccccc1		> 100 µM	> 100 µM	> 100 µM	> 100 µM	> 100 µM	> 100 µM		
Cc1cc(NS(=O)(=O)c2ccc(NC(=O)COC(=O)c3cccc4c(=O)c5ccccc5[nH]c34)cc2)no1	> 100 µM	> 100 µM	> 100 µM		> 100 µM	> 100 µM	> 100 µM		
COC1=CC(=O)NCCN1	> 100 µM	> 100 µM	> 100 µM	> 100 µM	> 100 µM	> 100 µM	> 100 µM		TGI (RXF-631 renal): > 100 µM
CCc1ncnc2cc(OCC3CO3)c(OC)cc12 (stereo unspecified)								21.8 µM	
C#C/C=C/CC1OC(C(Br)CC)CC(Br)C2CC1O2 (stereo unspecified)								> 100 µM	
NCCN1C(=O)c2ccccc2C1(O)c1ccc(Cl)cc1 (stereo unspecified)								32.7 µM	
C#CC(=O)OCC#CCOC(=O)C#C								> 100 µM	
O=C1c2c(c3c4ccccc4[nH]c3c3[nH]c4ccccc4c23)C(=O)N1Cc1ccccc1	15.6 µM	8.92 µM	6.74 µM		8.57 µM	9.63 µM			TGI (RXF-631 renal): 6.53 µM
O=c1cc(O)c2c(O)cc(O)cc2o1								> 100 µM	
CCOP(=O)(CC(=O)C1=C(O)C(CCCCNC(=O)OC(C)(C)C)N(Cc2ccccc2)C1=O)OCC (stereo unspecified)	> 100 µM	> 100 µM	> 100 µM	> 100 µM	> 100 µM				
COc1cc2ccc(CC(N)=O)cc2cc1OC		> 100 µM	> 100 µM	> 100 µM	> 100 µM	> 100 µM	> 100 µM		TGI (RXF-631 renal): > 100 µM
CC12CC(Sc3ccccc3N1)c1ccccc1O2 (stereo unspecified)	28.9 µM	29 µM	30.2 µM	31.6 µM	34.6 µM	42.6 µM	30.2 µM		TGI (RXF-631 renal): 28.4 µM
O=C(NC(=O)c1cc2cc(Br)cc(Br)c2oc1=O)Oc1ccccc1	> 100 µM	> 100 µM	> 100 µM	> 100 µM	> 100 µM	> 100 µM	> 100 µM		
CCN(CC)CCC(=O)/C=C/c1ccc(C)cc1	21.9 µM	24.4 µM	25.5 µM	31.5 µM	30 µM	79.3 µM	25.1 µM		TGI (RXF-631 renal): 35.1 µM
NC(CO)C(=O)NCC(=O)O (stereo unspecified)								> 100 µM	
Cc1ccc(S(=O)(=O)SCc2ccccc2)cc1	21.7 µM	47.8 µM	> 69.5 µM	> 100 µM	43.9 µM	30 µM	95.2 µM		
Oc1c2c(c(O)c3ccccc13)C1(N=N2)c2ccccc2Oc2ccccc21								21.8 µM	
